Measurements reported in patent US7879542B2, “Methylated gene biomarkers for detecting cancer” (The Johns Hopkins University, priority 2003, dated 2011).

Tests used:
SPARC mRNA expression = experiment: 5Aza-dC / TSA treatment of pancreatic cancer cell lines harboring SPARC methylation, SPARC mRNA by RT-PCR; type: cell-based, human
Procedure: (§1) Four μg of total RNA was reverse-transcribed using Superscript II (Invitrogen). The SPARC RT-PCR reaction was performed under the condition as follow: 95° C. for 5 minutes; then 28 cycles of 95° C. for 20 seconds, 63° C. for 20 seconds, and 72° C. for 20 seconds; and a final extension of 4 minutes at 72° C. Primer sequences were 5′-AAGATCCATGAGAATGAGAAG-3′ (forward) (SEQ ID NO: 11) and 5′-AAA AGC GGG TGG TGC AAT G-3′ (reverse) (SEQ ID NO: 12). To check the integrity of mRNA, glyceraldehyde-3-phosphate dehydrogenase (GAPDH) was also amplified in the same PCR condition. For semiquantitative analysis, the RT-PCR was performed with primers for SPARC and GAPDH in duplex reactions, and range of linear amplification for both genes was examined with serial PCR cycles to determine the optimal cycle. The relative intensity of SPARC mRNA expression was then corrected for variable RNA recovery using the corresponding GAPDH mRNA measurement as a surrogate for total mRNA.
Eight pancreatic cancer cell lines (AsPC1, BxPC3, Capan2, CFPAC1, Hs766T, MiaPaCa2, PL3, and PL12) were treated with 5Aza-dC. Cells in log phase growth were seeded in T-75 culture flasks. After overnight incubation, the cells were exposed continuously to 5Aza-dC (1 μM) for 4 days, with a change of drug and culture medium every 24 hours.
To confirm that DNA methylation is a mechanism for the silencing of SPARC, we treated 8 pancreatic cancer cell lines harboring SPARC methylation with the demethylating agent 5Aza-dC.

[1] = test system: SPARC gene expression in pancreatic cancer cells; conditions: pancreatic cancer cells treated with 5Aza-dC; Sato et al., manuscript submitted; cited from earlier work
[2] = test system: SPARC mRNA expression in AsPC1; experiment: Effect of TGF-β on SPARC mRNA expression in pancreatic cancer cell lines; type: cell-based, human; conditions: TGF-β 5 ng/ml, data not shown
Procedure: as §1
(§2) Because several growth factors such as TGF-β are known to induce the SPARC expression in fibroblasts (Wrana et al., 1991; Reed et al., 1994), and because TGF-β is one of the major secreted proteins highly expressed by pancreatic cancer cells (Friess et al., 1993), we examined the effect of TGF-β on SPARC expression in fibroblasts (panc-f3). […]

[3] = test system: SPARC mRNA expression in Panc1; experiment: as above; type: cell-based, human; conditions: TGF-β 5 ng/ml, data not shown
Procedure: as §1, §2

[4] = test system: SPARC mRNA expression in fibroblasts (panc-f3); experiment: Effect of TGF-β on SPARC expression in fibroblasts (semiquantitative RT-PCR); type: cell-based, human; conditions: TGF-β 5 ng/ml, 24 hours
Procedure: as §1, §2

AsPC1 cells = experiment: Effect of exogenous SPARC on proliferation of pancreatic cancer cells (cell count by hemacytometer); type: cell-based, human; conditions: SPARC 10 μg/ml, 72 hours
Procedure: (§3) We treated two pancreatic cancer cell lines (AsPC1 and Panc1) with exogenous SPARC. Cells in log phase growth were seeded at a density of 1×10^4 cells/well in 24-well plates. After overnight incubation, cells were treated with or without human platelet SPARC protein (10 μg/ml) for 72 hours, and the number of cells were counted by hemacytometer in three independent wells.
(§4) The effect of exogenous SPARC protein on growth of pancreatic cancer cells in vitro was also examined. We treated two pancreatic cancer cell lines (AsPC1 and Panc1) with purified SPARC protein and counted the number of cells after 72 hours.

Panc1 cells = experiment: as above; type: cell-based, human; conditions: SPARC 10 μg/ml, 72 hours
Procedure: as §3, §4

**Q.** Which results are given for `Nc1ncn([C@H]2C[C@H](O)[C@@H](CO)O2)c(=O)n1` [5Aza-dC, 5-Aza-2′-deoxycytidine]?
**A.** SPARC mRNA expression after treatment (RT-PCR) (SPARC mRNA expression; 8 pancreatic cancer cell lines harboring SPARC methylation, 5Aza-dC 1 μM, 4 days): restored in 7 of the 8 cell lines; SPARC mRNA expression after treatment (RT-PCR) (SPARC mRNA expression; Hs766T cell line): did not restore the SPARC expression; induction of SPARC gene expression (oligonucleotide microarrays) [1]: ≥ 5 fold

**Q.** With `CC(/C=C/C(=O)NO)=C\[C@@H](C)C(=O)c1ccc(N(C)C)cc1` [trichostatin A (TSA), trichostatin A] as the molecule, how does the “SPARC mRNA expression after treatment (RT-PCR)” value (SPARC mRNA expression; Hs766T cell line) read?
**A.** did not induce the SPARC expression

**Q.** With “TGF-β: human recombinant transforming growth factor (TGF)-β1 purchased from Sigma” as the molecule, how does the “SPARC transcript after treatment” value [2] read?
**A.** remained undetectable

**Q.** What about the “increase in SPARC mRNA expression” value [3] of the same molecule?
**A.** ~1,5 fold

**Q.** What about the “increase in SPARC mRNA expression” value [4] of the same molecule?
**A.** ~3,3 fold

B1: SPARC: Purified human platelet SPARC protein purchased from Calbiochem (protein, UniProt P09486 18-303, looked up)
SPARC: APQQEALPDETEVVEETVAEVTEVSVGANPVQVEVGEFDDGAEETEEEVVAENPCQNHHCKHGKVCELDENNTPMCVCQDPTSCPAPIGEFEKVCSNDNKTFDSSCHFFATKCTLEGTKKGHKLHLDYIGPCKYIPPCLDSELTEFPLRMRDWLKNVLVTLYERDEDNNLLTEKQKLRVKKIHENEKRLEAGDHPVELLARDFEKNYNMYIFPVHWQFGQLDQHPIDGYLSHTELAPLRAPLIPMEHCTTRFFETCDLDNDKYIALDEWAGCFGIKQKDIDKDLVI
**Q.** What does the source list for B1?
**A.** growth suppression (AsPC1 cells; P=0.001): ~27%; cell number (AsPC1 cells; mean±SD, untreated 5.8±0.8): 4.2±0.3 ×10^4 cells; growth inhibition (Panc1 cells; P<0.0001): ~30%; cell number (Panc1 cells; mean±SD, untreated 5.0±0.4): 3.5±0.4 ×10^4 cells
